Results taken from patent publication US20200031848A1, “AR-V7 INHIBITORS” (Hoffmann-La Roche Inc., priority 2016, published 2020).

What was measured:
[1] = biological target: T1, AR transcriptional activity (Homo sapiens, UniProt P10275, T878A); assay: eGFP cellular AR transcription assay; format: cell-based; details: LNCaP eGFP cell line
T1 construct: The LNCaP eGFP cell line was stably transfected with an androgen-responsive probasin-derived promoter fused to an eGFP reporter; endogenous in cells; host or cells: LNCaP eGFP (LN-ARR2PB-eGFP) human prostate cancer cells
T1 sequence (P10275 1-920 T878A): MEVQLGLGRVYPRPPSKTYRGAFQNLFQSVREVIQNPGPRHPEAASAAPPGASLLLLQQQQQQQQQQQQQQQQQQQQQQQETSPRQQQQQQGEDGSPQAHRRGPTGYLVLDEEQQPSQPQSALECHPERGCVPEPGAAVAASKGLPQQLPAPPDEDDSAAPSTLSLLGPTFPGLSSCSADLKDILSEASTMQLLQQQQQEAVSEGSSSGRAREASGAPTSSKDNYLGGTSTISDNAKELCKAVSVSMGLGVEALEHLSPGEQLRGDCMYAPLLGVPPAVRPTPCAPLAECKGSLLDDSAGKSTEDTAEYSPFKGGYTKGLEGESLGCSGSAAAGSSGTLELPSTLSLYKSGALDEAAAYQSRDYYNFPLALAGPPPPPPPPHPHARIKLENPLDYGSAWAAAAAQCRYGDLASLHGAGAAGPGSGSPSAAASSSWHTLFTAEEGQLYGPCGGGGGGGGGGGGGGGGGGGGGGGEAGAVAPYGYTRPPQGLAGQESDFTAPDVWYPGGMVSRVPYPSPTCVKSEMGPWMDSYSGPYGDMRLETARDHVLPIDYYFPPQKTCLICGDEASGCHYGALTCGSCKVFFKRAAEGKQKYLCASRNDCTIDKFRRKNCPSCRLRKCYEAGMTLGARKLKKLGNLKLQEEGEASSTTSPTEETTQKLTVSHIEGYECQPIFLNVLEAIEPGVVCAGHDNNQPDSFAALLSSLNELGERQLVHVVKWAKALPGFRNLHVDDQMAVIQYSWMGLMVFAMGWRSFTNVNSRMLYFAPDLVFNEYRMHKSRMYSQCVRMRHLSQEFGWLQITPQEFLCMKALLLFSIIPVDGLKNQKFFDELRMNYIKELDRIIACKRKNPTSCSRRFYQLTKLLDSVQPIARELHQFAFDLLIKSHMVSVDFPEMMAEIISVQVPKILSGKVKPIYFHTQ
From the text: The DNA-binding domain is an attractive target for inhibition of AR dimerization and/or DNA binding. In silico computational drug discovery methods were used to conduct a virtual screen of >3 million purchasable lead-like compounds from the ZINC database (Irwin, J. et al.^11) to identify potential DBD binders. The in silico methods included large-scale docking, in-site rescoring and consensus voting procedures. It will be understood by a person of skill that COOH and NR2 may include the corresponding ions, for example carboxylate ions and ammonium ions, respectively. Alternatively, where the ions are shown, a person of skill in the art will appreciate that the counter ion may also be present. Furthermore, it will be appreciated by a person of skill that other moieties may include the corresponding ions, and where the ions are shown, a person of skill in the art will appreciate that the counter ion may also be present. […] Where the % inhibition, eGFP IC50 or the PSA IC50 has no value given, this may be because no measurement was taken or the value was not calculated, in the case of the % inhibition. In vitro identification of AR inhibitors targeting AR DBD The selected compounds were assessed with a non-destructive eGFP assay that quantifies levels of AR transcriptional activity, were identified (table below).
(§1) 1. Cell Culture: LNCaP and PC3 human prostate cancer cells were obtained from American Type Culture Collection (ATCC, Manassas, Va.) and grown in RPMI 1640 medium supplemented with 5% fetal bovine serum (FBS) (Invitrogen). The LNCaP eGFP cell line was stably transfected with an androgen-responsive probasin-derived promoter fused to an eGFP reporter (LN-ARR2PB-eGFP) using a lentiviral approach, and were grown in phenol-red-free RPMI 1640 supplemented with 5% CSS. In-house developed MDV3100-resistant LNCaP cells were cultured in RPMI 1640 supplemented with 5% FBS and 10 μM MDV3100. All cells were maintained at 37° C. in 5% CO2.
2. eGFP cellular AR transcription assay: The AR transcriptional activity was assayed as previously described (Tavassoli, P., et al.^12).

[2] = tested on: PSA levels secreted into the media; assay: Prostate-specific antigen (PSA) assay; format: cell-based; details: Homo sapiens, 72 h; in parallel to the eGFP assay, same plates, 3 days
Protocol: as §1
3. Prostate-specific antigen (PSA) assay: The evaluation of PSA levels secreted into the media was performed in parallel to the eGFP assay using the same plates. After cells were incubated for 3 days, 150 μl of the media was taken from each well, and added to 150 μl of PBS. PSA levels were then evaluated using Cobas e 411 analyzer instrument (Roche Diagnostics) according to the manufacturer's instructions.

in vitro = details: human, microsomes, pH 7.4
Protocol: Microsomal incubations were carried out in 96-well plates in 5 aliquots of 40 μL each (one for each time point). […] Control incubations were performed replacing the NADPH-cofactor system with PBS. […] Incubations were performed in duplicates. Five time points over 40 minutes had been analyzed. The reactions were stopped by adding 12 volumes of 90% acetonitrile-water to incubation aliquots, followed by protein sedimentation by centrifuging at 5500 rpm for 5 minutes. Supernatants were analyzed using the HPLC system coupled with tandem mass spectrometer. The elimination constant (kel), half-life (t1/2) and intrinsic clearance (Clint) were determined in plot of […] versus time, using linear regression analysis: […]

Compound	IC50 [1] [nM]	IC50 [2] [nM]	microsomal CLint at 2 μM (in vitro) [µL/min/mg]
Cc1nc(Br)cn1-c1csc(N2CCOCC2)n1 [Example 42, 4-[4-(4-bromo-2-methyl-imidazol-1-yl)thiazol-2-yl]morpholine]	750	659	72
CSc1nc(Br)cn1-c1csc(N2CCOCC2)n1 [Example 41, 4-[4-(4-bromo-2-methylsulfanyl-imidazol-1-yl)thiazol-2-yl]morpholine]	496	458	198
Brc1cn(-c2csc(N3CCOCC3)n2)c(Br)n1 [Example 40, 4-[4-(2,4-dibromoimidazol-1-yl)thiazol-2-yl]morpholine]	413	420	177
Clc1ncn(-c2csc(N3[C@@H]4CCC[C@H]3COC4)n2)c1Br [Example 5, (1R,5S)-9-[4-(5-bromo-4-chloro-imidazol-1-yl)thiazol-2-yl]-3-oxa-9-azabicyclo[3.3.1]nonane]	268	181	

Second part, the compound after the results:

IC50 [1] [nM]	IC50 [2] [nM]	microsomal CLint at 2 μM (in vitro) [µL/min/mg]	Compound
182	1060		Brc1ncn(-c2csc(N3C[C@H]4CC[C@@H](C3)O4)n2)c1Br [Example 3, (1R,5S)-3-[4-(4,5-dibromoimidazol-1-yl)thiazol-2-yl]-8-oxa-3-azabicyclo[3.2.1]octane]
1230	1390	165	Brc1ncn(-c2csc(N3CCOCC3)n2)c1Br [Example 43, 4-[4-(4,5-dibromoimidazol-1-yl)thiazol-2-yl]morpholine]
